Target: T1, KRas G12C (Homo sapiens, UniProt P01116, C118S/C51S/C80L/G12C)
T1 construct: GDP-loaded K-Ras (1-169) G12C, C51S, C80L, C118S
Test: KRas G12C Modification Assay (LCMS detection of covalent adduct)
Format: binding
Settings: 5 μM concentration for 3 hours; LC/MS of intact protein; higher POC = higher degree of modification
Experimental: A 10 μL aliquot of each protein solution was then transferred to a 384 well microtiter plate. Initial compound stocks were generated at fifty times their desired final assay concentration in DMSO.
Exemplary compounds of Formula (II) were diluted 25-fold into K-Ras Assay Buffer to a final of two times their final concentration. A 10 μL aliquot of each diluted compound solution was then added to each of the protein solutions in the microtiter plate to initiate reaction. […] At each time point, the reactions were quenched with 20 μL of a 25 mM acetic acid solution. […] Once all reactions were quenched, the plates were heat sealed and the samples were injected into a LC/MS system for data acquisition.
Samples were injected in their liquid phase onto a C-3 reverse phase column to remove assay buffer and prepare the samples for mass spectrometer. The proteins were eluted from the column using an acetonitrile gradient and fed directly into the mass analyzer. Initial raw data analysis took place in Agilent MassHunter software immediately post data acquisition.
Raw data analysis of the intact protein was exclusively a deconvolution of the multiple charge states of each protein in solution using a maximum entropy deconvolution provided in Mass Hunter. To minimize complexity, only the data over limited mass ranges were considered for analysis, with a minimum of one Dalton mass step intervals. The heights of all masses identified during raw data analysis were exported to be further analyzed in Spotfire® data analysis software.
Final data analysis was a multistep process in the Spotfire® data analysis software package. Briefly, each protein mass was calculated as a percent of the total signal of that sample, that percentage was then normalized to the percentage of signal of the protein in the absence of reactive compounds. Those normalized signals were reported as normalized percent of control (POC). […] Key: “A”≤25% POC; “B”>25% POC−≤50% POC; “C”>50% POC and ND=not determined.

| SMILES | POC (normalized percent of control; degree of covalent modification of KRas G12C) |
| --- | --- |
| Cc1cccc2cccc(N3CCc4c(nc(OC[C@@H]5CCCN5C)nc4N4CCN(C(=O)/C=C/c5ccccn5)[C@@H](CC#N)C4)C3)c12 [Example 22, 2-((S)-4-(7-(8-methylnaphthalen-1-yl)-2-(((S)-1-methylpyrrolidin-2-yl)methoxy)-5,6,7,8-tetrahydropyrido[3,4-d]pyrimidin-4-yl)-1-((E)-3-(pyridin-2-yl)acryloyl)piperazin-2-yl)acetonitrile] | C (“C”>50% POC) |
| Cc1cccc2cccc(N3CCc4c(nc(OC[C@@H]5CCCN5C)nc4N4CCN(C(=O)/C=C/CO)[C@@H](CC#N)C4)C3)c12 [Example 39, 2-((S)-1-((E)-4-hydroxybut-2-enoyl)-4-(7-(8-methylnaphthalen-1-yl)-2-(((S)-1-methylpyrrolidin-2-yl)methoxy)-5,6,7,8-tetrahydropyrido[3,4-d]pyrimidin-4-yl)piperazin-2-yl)acetonitrile] | C (“C”>50% POC) |
| C=C(F)C(=O)N1CCN(c2nc(OC[C@@H]3CCCN3C)nc3c2CCN(c2cccc4cccc(C)c24)C3)C[C@@H]1CC#N [Example 36, 2-((S)-1-(2-fluoroacryloyl)-4-(7-(8-methylnaphthalen-1-yl)-2-(((S)-1-methylpyrrolidin-2-yl)methoxy)-5,6,7,8-tetrahydropyrido[3,4-d]pyrimidin-4-yl)piperazin-2-yl)acetonitrile] | C (“C”>50% POC) |
| Cc1cccc2cccc(N3CCc4c(nc(OC[C@@H]5CCCN5C)nc4N4CCN(C(=O)/C=C/c5ccncc5)[C@@H](CC#N)C4)C3)c12 [Example 55, 2-((S)-4-(7-(8-methylnaphthalen-1-yl)-2-(((S)-1-methylpyrrolidin-2-yl)methoxy)-5,6,7,8-tetrahydropyrido[3,4-d]pyrimidin-4-yl)-1-((E)-3-(pyridin-4-yl)acryloyl)piperazin-2-yl)acetonitrile] | C (“C”>50% POC) |
| CN1CCC[C@H]1COc1nc2c(c(N3CCN(C(=O)/C=C/CO)[C@@H](CC#N)C3)n1)CCN(c1cccc3cccc(Cl)c13)C2 [Example 42, 2-[(2S)-4-[7-(8-chloro-1-naphthyl)-2-[[(2S)-1-methylpyrrolidin-2-yl]methoxy]-6,8-dihydro-5H-pyrido[3,4-d]pyrimidin-4-yl]-1-[(E)-4-hydroxybut-2-enoyl]piperazin-2-yl]acetonitrile] | C (“C”>50% POC) |
| Cc1cccc2cccc(N3CCc4c(nc(OC[C@@H]5CCCN5C)nc4N4CCN(C(=O)/C=C/CCl)[C@@H](CC#N)C4)C3)c12 [Example 27, 2-((S)-1-((E)-4-chlorobut-2-enoyl)-4-(7-(8-methylnaphthalen-1-yl)-2-(((S)-1-methylpyrrolidin-2-yl)methoxy)-5,6,7,8-tetrahydropyrido[3,4-d]pyrimidin-4-yl)piperazin-2-yl)acetonitrile] | C (“C”>50% POC) |
| CN1CCC[C@H]1COc1nc2c(c(N3CCN(C(=O)C#CCO)[C@@H](CC#N)C3)n1)CCN(c1cccc3cccc(Cl)c13)C2 [Example 12, 2-[(2S)-4-[7-(8-chloro-1-naphthyl)-2-[[(2S)-1-methylpyrrolidin-2-yl]methoxy]-6,8-dihydro-5H-pyrido[3,4-d]pyrimidin-4-yl]-1-(4-hydroxybut-2-ynoyl)piperazin-2-yl]acetonitrile] | C (“C”>50% POC) |
| C=C(C(=O)N1CCN(c2nc(OC[C@@H]3CCCN3C)nc3c2CCN(c2cccc4cccc(C)c24)C3)C[C@@H]1CC#N)C(F)(F)F [Example 21, 2-((S)-4-(7-(8-methylnaphthalen-1-yl)-2-(((S)-1-methylpyrrolidin-2-yl)methoxy)-5,6,7,8-tetrahydropyrido[3,4-d]pyrimidin-4-yl)-1-(2-(trifluoromethyl)acryloyl)piperazin-2-yl)acetonitrile] | A (“A”≤25% POC) |
| CN1CCC[C@H]1COc1nc2c(c(N3CCN(C(=O)/C=C/CN4CCC(F)C4)[C@@H](CC#N)C3)n1)CCN(c1cccc3cccc(Cl)c13)C2 (stereo partly drawn) [Example 9, 2-[(2S)-4-[7-(8-chloro-1-naphthyl)-2-[[(2S)-1-methylpyrrolidin-2-yl]methoxy]-6,8-dihydro-5H-pyrido[3,4-d]pyrimidin-4-yl]-1-[(E)-4-(3-fluoropyrrolidin-1-yl)but-2-enoyl]piperazin-2-yl]acetonitrile] | C (“C”>50% POC) |
| CN1CCC[C@H]1COc1nc2c(c(N3CCN(C(=O)/C=C/C(F)(F)F)[C@@H](CC#N)C3)n1)CCN(c1cccc3cccc(Cl)c13)C2 [Example 19, 2-((S)-4-(7-(8-chloronaphthalen-1-yl)-2-(((S)-1-methylpyrrolidin-2-yl)methoxy)-5,6,7,8-tetrahydropyrido[3,4-d]pyrimidin-4-yl)-1-((E)-4,4,4-trifluorobut-2-enoyl)piperazin-2-yl)acetonitrile] | C (“C”>50% POC) |
| C=C(F)C(=O)N1CCN(c2nc(OC[C@@H]3CCCN3C)nc3c2CCN(c2cccc(C)c2C)C3)C[C@@H]1CC#N [Example 1, 2-[(2S)-4-[7-(2,3-dimethylphenyl)-2-[[(2S)-1-methylpyrrolidin-2-yl]methoxy]-6,8-dihydro-5H-pyrido[3,4-d]pyrimidin-4-yl]-1-(2-fluoroprop-2-enoyl)piperazin-2-yl]acetonitrile] | C (“C”>50% POC) |
| Cc1cccc(N2CCc3c(nc(OC[C@@H]4CCCN4C)nc3N3CCN(C(=O)/C=C/CN4CCC(F)C4)[C@@H](CC#N)C3)C2)c1C (stereo partly drawn) [Example 5, 2-[(2S)-4-[7-(2,3-dimethylphenyl)-2-[[(2S)-1-methylpyrrolidin-2-yl]methoxy]-6,8-dihydro-5H-pyrido[3,4-d]pyrimidin-4-yl]-1-[(E)-4-(3-fluoropyrrolidin-1-yl)but-2-enoyl]piperazin-2-yl]acetonitrile] | C (“C”>50% POC) |
| Cc1cccc2cccc(N3CCc4c(nc(OC[C@@H]5CCCN5C)nc4N4CCN(C(=O)C#CCO)[C@@H](CC#N)C4)C3)c12 [Example 37, 2-((S)-1-(4-hydroxybut-2-ynoyl)-4-(7-(8-methylnaphthalen-1-yl)-2-(((S)-1-methylpyrrolidin-2-yl)methoxy)-5,6,7,8-tetrahydropyrido[3,4-d]pyrimidin-4-yl)piperazin-2-yl)acetonitrile] | C (“C”>50% POC) |
